Values joined by “and” are separate entries in the source; they are usually repeats but may differ in a detail not shown here. Equal entries are not always repeated. Where two headings read alike, the source gives them in different places.

This assay addresses KAT6A (Homo sapiens (Human), UniProt Q92794). The assay is described as follows: KAT assay protocol (SAMDI mass spectrometry), KAT6A. Particulars: for inhibition at 1 µM: 1 μM compound; for Ki: 10 μM AcCoA, Morrison equation; for IC50: 1 μM AcCoA. In kind it is biochemical. As to the method: Biological Assay Section 1 KAT Assay Protocol:
A. Compound Preparation • 1. Prepare 10 mM stock solutions in 100% DMSO from solid material • 2. Serial dilute 10 mM, 1 mM or 0.1 mM compound stocks 3-fold in 100% DMSO for 11-point dose response
B. Reagent Preparation • 1. Prepare 1× assay buffer containing 10 mM Tris HCL pH 8.0, 2.5 mM NaCl, 0.5 mM EDTA, 0.005% BSG and 0.02% Tween-20 • 2. Dilute Histone peptide (CPC Scientific) and AcCoA (Sigma) together in assay buffer to 2×. • 3. Dilute KAT enzyme in assay buffer to 2×.
C. Enzyme Reaction • 1. Final reaction conditions for each KAT assay in a 20 ul assay reaction volume: • i. […] Add 0.5 ul of diluted compound to the assay plate (384-well V-bottom polypropylene plates) or 0.5 ul of DMSO for control wells. • 3. Add 10 ul of 2× Histone peptide/2× AcCoA mix to the assay plate. • 4. Add 10 ul of 2× enzyme to the assay plate. • 5. Stop the reaction after the indicated time with the addition of 2 ul of 5% formic acid • 6. Each reaction was analyzed using self-assembled monolayer desorption/ionization time-of-flight mass spectrometry (Mrksich, Milan (2008) Mass Spectrometry of Self-Assembled Monolayers: A New Tool for Molecular Surface Science ACS Nano 2008 2 (1), 7-18; SAMDI Tech, Inc. (Chicago, IL)). • 7. Area under the curve (AUC) for both substrate and product peaks was determined for KAT6A at M.W. 2723 [Substrate+H]^+ and 2765 [Product+H]^+ with a +/−1 Da tolerance, respectively. • 8. Percent conversion to product was calculated by: AUCProduct/(AUCSubstrate+AUCProduct).
D. Data Analysis • 1. IC50 values were determined by fitting the % conversion at each inhibitor concentration to the 4-parameter IC50 equation using Pfizer proprietary curve fitting software. • 2. Ki values were determined by fitting the % conversion at each inhibitor concentration to the Morrison equation for tightbinding competitive inhibitors using Pfizer proprietary curve fitting software. Materials
KAT enzymes were expressed using a baculovirus expression system and purified at Pfizer, La Jolla. Histone H3 (1-21) peptide ([…], SEQ ID NO:3) was purchased from CPC Scientific (Sunnyvale, CA). Acetyl coenzyme A was purchased from Sigma-Aldrich (St. Louis, MO). All other biochemical reagents were purchased from Sigma-Aldrich or ThermoFisher Scientific (Waltham, MA).
[…] 10 ul of 2× Histone peptide/AcCoA mix was added to a 384-well V-bottom polypropylene assay plate containing 0.5 ul of serially diluted test compound in 100% dimethyl sulfoxide (DMSO). To start the reaction, 10 ul of 2× enzyme solution was added to the assay plate. KAT assays were terminated after 30-60 minutes with the addition of 2 ul of 5% formic acid. KAT6A used histone H3 (1-21) peptide. The final enzyme concentration for KAT6A was 15 nM. Each reaction was analyzed using self-assembled monolayer desorption/ionization time-of-flight mass spectrometry (Mrksich, Milan (2008) Mass Spectrometry of Self-Assembled Monolayers: A New Tool for Molecular Surface Science ACS Nano 2008 2 (1), 7-18; SAMDI Tech, Inc. (Chicago, IL)).
Area under the curve (AUC) for both substrate and product peaks was determined for KAT6A at M.W. 2723 [Substrate+H]^+ and 2765 [Product+H]^+ with a +/−1 Da tolerance, respectively. Percent conversion to product was calculated by: AUCProduct/(AUCSubstrate+AUCProduct). IC50 values were determined by fitting the % conversion at each inhibitor concentration to the 4-parameter IC50 equation using Pfizer proprietary curve fitting software. Ki values were determined by fitting the % conversion at each inhibitor concentration to the Morrison equation for tightbinding competitive inhibitors using Pfizer proprietary curve fitting software.

KAT6A, sequence (Q92794 whole entry): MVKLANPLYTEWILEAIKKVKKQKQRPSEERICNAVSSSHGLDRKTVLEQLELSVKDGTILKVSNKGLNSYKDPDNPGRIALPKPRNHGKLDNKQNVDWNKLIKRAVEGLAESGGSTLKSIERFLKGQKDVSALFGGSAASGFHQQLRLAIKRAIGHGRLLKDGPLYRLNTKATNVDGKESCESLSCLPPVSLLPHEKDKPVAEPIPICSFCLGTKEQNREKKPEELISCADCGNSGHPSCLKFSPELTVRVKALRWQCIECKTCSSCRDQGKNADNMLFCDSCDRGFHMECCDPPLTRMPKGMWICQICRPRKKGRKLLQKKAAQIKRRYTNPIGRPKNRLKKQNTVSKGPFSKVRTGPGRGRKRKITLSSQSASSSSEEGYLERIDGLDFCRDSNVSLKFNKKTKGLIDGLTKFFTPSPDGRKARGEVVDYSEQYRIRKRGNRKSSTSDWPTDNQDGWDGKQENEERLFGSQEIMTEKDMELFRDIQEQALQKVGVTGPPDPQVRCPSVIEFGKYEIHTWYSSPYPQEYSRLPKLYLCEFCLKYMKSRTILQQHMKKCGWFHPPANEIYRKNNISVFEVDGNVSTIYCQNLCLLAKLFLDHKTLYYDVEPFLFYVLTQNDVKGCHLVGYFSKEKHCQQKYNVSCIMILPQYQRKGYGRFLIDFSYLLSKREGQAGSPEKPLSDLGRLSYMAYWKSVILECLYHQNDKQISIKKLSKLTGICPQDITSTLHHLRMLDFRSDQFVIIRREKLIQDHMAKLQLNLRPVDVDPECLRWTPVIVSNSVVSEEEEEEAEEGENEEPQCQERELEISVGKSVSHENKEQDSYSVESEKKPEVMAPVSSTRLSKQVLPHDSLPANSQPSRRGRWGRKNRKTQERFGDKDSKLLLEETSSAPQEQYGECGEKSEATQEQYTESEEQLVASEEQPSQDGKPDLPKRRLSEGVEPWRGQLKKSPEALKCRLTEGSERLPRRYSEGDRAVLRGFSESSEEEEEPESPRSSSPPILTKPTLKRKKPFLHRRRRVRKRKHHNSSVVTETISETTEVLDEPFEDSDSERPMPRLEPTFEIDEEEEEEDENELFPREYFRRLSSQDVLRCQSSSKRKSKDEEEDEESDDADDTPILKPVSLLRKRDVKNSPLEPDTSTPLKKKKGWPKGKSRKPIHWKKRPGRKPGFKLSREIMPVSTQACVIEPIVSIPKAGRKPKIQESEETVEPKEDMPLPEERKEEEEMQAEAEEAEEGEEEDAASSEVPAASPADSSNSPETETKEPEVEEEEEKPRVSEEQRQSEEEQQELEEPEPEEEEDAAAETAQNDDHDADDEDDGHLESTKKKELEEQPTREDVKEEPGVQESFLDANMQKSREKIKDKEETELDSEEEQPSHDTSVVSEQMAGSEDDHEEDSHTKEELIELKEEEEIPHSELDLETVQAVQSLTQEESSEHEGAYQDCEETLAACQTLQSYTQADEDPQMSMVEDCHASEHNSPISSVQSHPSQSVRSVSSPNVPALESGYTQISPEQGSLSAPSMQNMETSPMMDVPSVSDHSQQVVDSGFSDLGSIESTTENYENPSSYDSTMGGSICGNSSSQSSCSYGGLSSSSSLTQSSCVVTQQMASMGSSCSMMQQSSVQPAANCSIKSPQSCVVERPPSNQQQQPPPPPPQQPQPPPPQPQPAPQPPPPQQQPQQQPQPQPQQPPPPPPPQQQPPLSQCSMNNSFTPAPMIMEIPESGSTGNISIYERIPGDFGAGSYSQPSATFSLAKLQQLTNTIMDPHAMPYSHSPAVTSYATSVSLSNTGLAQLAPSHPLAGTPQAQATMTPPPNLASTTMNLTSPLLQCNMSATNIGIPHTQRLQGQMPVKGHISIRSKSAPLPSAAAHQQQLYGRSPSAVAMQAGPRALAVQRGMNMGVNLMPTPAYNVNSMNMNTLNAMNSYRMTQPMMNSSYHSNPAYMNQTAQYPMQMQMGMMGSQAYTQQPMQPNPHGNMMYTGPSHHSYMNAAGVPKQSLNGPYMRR

Consider `COc1cc(Cn2cccn2)cc2onc(NS(=O)(=O)CC3(C)CCOCC3)c12` [Example 118], for which the inhibition at 1 µM came to 56%. Same read-out and setting: then `COc1cc(Cn2cccn2)cc2onc(NS(=O)(=O)CC3(OC)CCC3)c12` [Example 56], with 71%; and `COc1cc(Cn2cccn2)cc2onc(NS(=O)(=O)C3CCOCC3C)c12` (centres unmarked) [Example 96], with 58%. With `COc1cc(Cn2cccn2)cc2onc(NS(=O)(=O)CC3CCC(F)(F)CC3)c12` [Example 10], the inhibition at 1 µM stood at 48%. Besides, for the setting “KAT6A Ki at 10 μM AcCoA”, the Ki came to 89.4 nM. Regarding `COc1cc(Cn2cccn2)cc2onc(NS(=O)(=O)C3CCC(C#N)C3)c12` (centres unmarked) [Example 16], the inhibition at 1 µM was determined as 81%. Regarding `COc1cc(Cn2cccn2)cc2onc(NS(=O)(=O)C3CCC(F)(F)CC3)c12` [Example 51], the inhibition at 1 µM is 65%. On to `COc1cc(Cn2cccn2)cc2onc(NS(=O)(=O)CC3CCCCO3)c12` (centres unmarked) [Example 101], for which the inhibition at 1 µM was found to be 65%. On to `COc1cc(Cn2cccn2)cc2onc(NS(=O)(=O)CC3CC34CC4)c12` (centres unmarked) [Example 57], for which the inhibition at 1 µM is 104%. Under “KAT6A Ki at 10 μM AcCoA”, this compound displayed an inhibitory constant (Ki) of 13.9 nM.

On to `COc1cc(Cn2cccn2)cc2onc(NS(=O)(=O)NC3CCCCC3)c12` [Example 131], for which, for the setting “read-out: KAT6A IC50 at 1 μM AcCoA”, the IC50 worked out at 6 nM. For the same compound, the Ki (read-out: KAT6A Ki at 10 μM AcCoA) is 3 nM. Consider `COc1cc(Cn2cccn2)cc2onc(NS(=O)(=O)CC3CC(C)(C)OC3(C)C)c12` (centres unmarked) [Example 86], for which the inhibition at 1 µM stood at 77%. Where the note is “KAT6A Ki at 10 μM AcCoA”, this compound registered a Ki of 107 nM. With `COc1cc(Cn2cccn2)cc2onc(NS(=O)(=O)CCN3CCOCC3)c12` [Example 130], inhibition (KAT6A IC50 at 1 μM AcCoA) was half-maximal at 187 nM (IC50).

For `COc1cc(Cn2cccn2)cc2onc(NS(=O)(=O)C3CCCOC3)c12` (centres unmarked) [Example 87], the inhibition at 1 µM came to 73%. The compound also returned an inhibitory constant (Ki) (KAT6A Ki at 10 μM AcCoA) of 100 nM. In the case of `COc1cc(Cn2cccn2)cc2onc(NS(=O)(=O)CC3CC(F)(F)C3)c12` [Example 36], the inhibition at 1 µM is 51%. For `COc1cc(Cn2cccn2)cc2onc(NS(=O)(=O)CC3CCCCC3(C)C)c12` (centres unmarked) [Example 63], the inhibition at 1 µM amounted to 48%. As to `COc1cc(Cn2cccn2)cc2onc(NS(=O)(=O)C3CCC(C)CC3)c12` (centres unmarked) [Example 82], the inhibition at 1 µM was found to be 61%. With `COc1cc(Cn2cccn2)cc2onc(NS(=O)(=O)CCC3CC4CCC3C4)c12` (centres unmarked) [Example 45], the inhibition at 1 µM stood at 108%. Where the note is “KAT6A IC50 at 1 μM AcCoA”, `COc1cc(Cn2cccn2)cc2onc(NS(=O)(=O)C[C@H]3C[C@H](C)C3)c12` [Example 134] gave an IC50 of 40 nM. Take `COc1cc(Cn2cccn2)cc2onc(NS(=O)(=O)CC3C(C)(C)C3(F)F)c12` (centres unmarked) [Example 75]: the inhibition at 1 µM worked out at 91%. As to `COc1cc(Cn2cccn2)cc2onc(NS(=O)(=O)CCN3CCCC3)c12` [Example 129], the inhibition at 1 µM turned out to be 16%. `COCC1(CS(=O)(=O)Nc2noc3cc(Cn4cccn4)cc(OC)c23)CCC1` [Example 55]: the inhibition at 1 µM came to 64%. The same measure, in the same setting: the value for `COc1cc(Cn2cccn2)cc2onc(NS(=O)(=O)CC3(C)CC3(F)F)c12` (centres unmarked) [Example 42] was 50%; that for `COc1cc(Cn2cccn2)cc2onc(NS(=O)(=O)C3CCC(OC)CC3)c12` (centres unmarked) [Example 44] was 89%. Take `COc1cc(Cn2cccn2)cc2onc(NS(=O)(=O)[C@H]3C[C@H]4CC[C@H]3C4)c12` [Example 25]: the inhibition at 1 µM was determined as 87%. For the setting “KAT6A Ki at 10 μM AcCoA”, this compound yielded an inhibition constant (Ki) of 16.5 nM. Regarding `COc1cc(Cn2cccn2)cc2onc(NS(=O)(=O)CC(OC)C3CCCCC3)c12` (centres unmarked) [Example 46], the inhibition at 1 µM was 103%.

As for `COc1cc(Cn2cccn2)cc2onc(NS(=O)(=O)CC3CCCOC3)c12` (centres unmarked) [Example 98], the inhibition at 1 µM stood at 41%.

Regarding `CCOC1(CS(=O)(=O)Nc2noc3cc(Cn4cccn4)cc(OC)c23)CCOCC1` [Example 93], the inhibition at 1 µM was found to be 59%.

For the compound `COc1cc(Cn2cccn2)cc2onc(NS(=O)(=O)CC3CCC3(F)F)c12` (centres unmarked) [Example 79], the inhibition at 1 µM was found to be 106%. Take `COc1cc(Cn2cccn2)cc2onc(NS(=O)(=O)CCC3CCOC3)c12` (centres unmarked) [Example 112]: the inhibition at 1 µM was 68%.

`COc1cc(Cn2cccn2)cc2onc(NS(=O)(=O)CC(C)OCC3CCCC3)c12` (centres unmarked) [Example 127]: the IC50 (KAT6A IC50 at 1 μM AcCoA) was determined as 36 nM. Take `COc1cc(Cn2cccn2)cc2onc(NS(=O)(=O)CCCC3CCCCC3)c12` [Example 37]: the inhibition at 1 µM came to 98%. With `COc1cc(Cn2cccn2)cc2onc(NS(=O)(=O)[C@@H]3CCCN(C(=O)OCc4ccccc4)C3)c12` [Example 91], the inhibition at 1 µM turned out to be 53%.

With `COc1cc(Cn2cccn2)cc2onc(NS(=O)(=O)CC3(C)CCCCC3)c12` [Example 22], the inhibition at 1 µM came out at 60%. Besides, for the setting “KAT6A Ki at 10 μM AcCoA”, the Ki is 33.2 nM.

`COc1cc(Cn2cccn2)cc2onc(NS(=O)(=O)CC3(C(F)F)CCC3)c12` [Example 76]: the inhibition at 1 µM turned out to be 90%. For the compound `COc1cc(Cn2cccn2)cc2onc(NS(=O)(=O)C3(C)CCC3)c12` [Example 81], the inhibition at 1 µM came out at 41%.

In the case of `COc1cc(Cn2cccn2)cc2onc(NS(=O)(=O)CC(C)C3CC3)c12` (centres unmarked) [Example 48], the inhibition at 1 µM turned out to be 55%.

`COc1cc(Cn2cccn2)cc2onc(NS(=O)(=O)C3COC(C)(C)C3)c12` (centres unmarked) [Example 90]: the inhibition at 1 µM is 83%. Further, the Ki (KAT6A Ki at 10 μM AcCoA) is 66.2 nM and 58.1 nM. For the compound `COc1cc(Cn2cccn2)cc2onc(NS(=O)(=O)CC3CCC(C)O3)c12` (centres unmarked) [Example 100], the inhibition at 1 µM turned out to be 69%. For the compound `COc1cc(Cn2cccn2)cc2onc(NS(=O)(=O)CC3(C#N)CC3)c12` [Example 35], the inhibition at 1 µM was 40%. `COc1cc(Cn2cccn2)cc2onc(NS(=O)(=O)CC3CN(S(C)(=O)=O)C3)c12` [Example 85]: the inhibition at 1 µM was determined as 36%. The compound also displayed a Ki (KAT6A Ki at 10 μM AcCoA) of 1340 nM. In the case of `COc1cc(Cn2cccn2)cc2onc(NS(=O)(=O)CC3(C(F)F)CC3)c12` [Example 50], the inhibition at 1 µM was found to be 87%. Take `COc1cc(Cn2cccn2)cc2onc(NS(=O)(=O)C3CCC(C)C3)c12` (centres unmarked) [Example 21]: the inhibition at 1 µM is 84%. Besides, the Ki (KAT6A Ki at 10 μM AcCoA) was 34.5 nM.

For the compound `COCC1(S(=O)(=O)Nc2noc3cc(Cn4cccn4)cc(OC)c23)CC1` [Example 47], the inhibition at 1 µM worked out at 68%.

In the case of `COc1cc(Cn2cccn2)cc2onc(NS(=O)(=O)CC34CCC(CC3)C4)c12` [Example 67], the inhibition at 1 µM was determined as 104%. With `COc1cc(Cn2cccn2)cc2onc(NS(=O)(=O)CCC(C)(C)C3CC3)c12` [Example 32], the inhibition at 1 µM worked out at 108%. Under “KAT6A Ki at 10 μM AcCoA”, this compound showed a Ki of 4.88 nM. As to `COc1cc(Cn2cccn2)cc2onc(NS(=O)(=O)CCC3CCCO3)c12` (centres unmarked) [Example 102], the inhibition at 1 µM was found to be 70%. The compound further returned a Ki (KAT6A Ki at 10 μM AcCoA) of 116 nM. `COc1cc(Cn2cccn2)cc2onc(NS(=O)(=O)CC3CCCC3(F)F)c12` (centres unmarked) [Example 77] yielded an inhibition constant Ki (KAT6A Ki at 10 μM AcCoA) of 15.5 nM. `COc1cc(Cn2cccn2)cc2onc(NS(=O)(=O)[C@H]3CCCC[C@H]3OC)c12` [Example 83]: the inhibition at 1 µM was found to be 85%. With `COc1cc(Cn2cccn2)cc2onc(NS(=O)(=O)CC3CCCCO3)c12` (single isomer, unassigned; (+)) [Example 1, (+)-N-{4-methoxy-6-[(1H-pyrazol-1-yl)methyl]-1,2-benzoxazol-3-yl}-1-(oxan-2-yl)methanesulfonamide], the inhibition at 1 µM turned out to be 88%. Further, where the note is “KAT6A IC50 at 1 μM AcCoA”, the IC50 was found to be 117 nM. `COc1cc(Cn2cccn2)cc2onc(NS(=O)(=O)CC3(OC)CCCC3)c12` [Example 71]: the inhibition at 1 µM turned out to be 72%.
